Measured values reported in patent US20010021697A1, “METHODS AND COMPOSITIONS FOR THE TREATMENT OF MAMMALIAN INFECTIONS EMPLOYING MEDICAMENTS COMPRISING HYMENOPTERA VENOM, PROTEINAGEOUS OR POLYPEPTIDE COMPONENTS THEREOF, OR ANALOGUES OF SUCH PROTEINACEOUS OR POLYPEPTIDE COMPONENTS” (priority 1987, published 2001).

Tests used:
[1] = test system: S. aureus; experiment: Automated MIC assay (Sensititre) of antibiotics with and without HBV; assay type: cell-based; conditions: with vs without 4 ug/ml HBV
[2] = test system: S. epidermidis; experiment: as above; assay type: cell-based; conditions: with vs without 4 ug/ml HBV
[3] = test system: Streptococcus faecalis; experiment: as above; assay type: cell-based; conditions: Streptococcus faecalis strain 81-; with vs without 4 ug/ml HBV
[4] = test system: E. coli; experiment: as above; assay type: cell-based; conditions: with vs without 4 ug/ml HBV
[5] = test system: 30 random strains of bacteria; conditions: Sephadex G-50 purified melittin fraction; cited from earlier work
[6] = test system: E. Coli strain No. G1108E; experiment: Checkerboard titration synergy assay of natural melittin and analogue #6 with polymyxin B; assay type: cell-based; conditions: for synergistic activity with polymyxin B compared with natural melittin: E. coli, 10 ug peptide + 6 units polymyxin B
[7] = test system: S. aureus; experiment: Equivalent doses of melittin fraction and whole honeybee venom with and without kanamycin (growth curves); assay type: cell-based; conditions: for MEAN A660: doses of what is present: KANA = 2.5, MEL = 1.6, HBV = 2 (ug/ml)
[8] = test system: E. coli G1108E; experiment: Checkerboard titration synergy assay of melittin analogues with polymyxin B; assay type: cell-based; conditions: for relative in vitro activity, place in ascending order: 5 ug/ml peptide with 6 units/ml polymyxin B, delay time until mid-log phase (FIG. 26)
[9] = Relative activity of analogues with respect to native melittin; assay type: cell-based
Experimental: Also some of then analogues mentioned above were tested to determine their relative activities with respect to native melittin. The relative activity is calculated as follows: [formula]

[10] = S. aureus strain QC (printed 0C)
[11] = 0 hrs, doses of what is present: Polymyxin B 3 units, peptide 5 ug
[12] = 0 hrs, doses of what is present: Polymyxin B 6 units, peptide 10 ug
[13] = 2 hrs, doses of what is present: Polymyxin B 3 units, peptide 5 ug
[14] = 2 hrs, doses of what is present: Polymyxin B 6 units, peptide 10 ug
[15] = 4 hrs, doses of what is present: Polymyxin B 3 units, peptide 5 ug
[16] = 4 hrs, doses of what is present: Polymyxin B 6 units, peptide 10 ug
[17] = 6 hrs, doses of what is present: Polymyxin B 3 units, peptide 5 ug
[18] = 6 hrs, doses of what is present: Polymyxin B 6 units, peptide 10 ug
[19] = 8 hrs, doses of what is present: Polymyxin B 3 units, peptide 5 ug
[20] = 8 hrs, doses of what is present: Polymyxin B 6 units, peptide 10 ug
[21] = 12 hrs, doses of what is present: Polymyxin B 3 units, peptide 5 ug
[22] = 12 hrs, doses of what is present: Polymyxin B 6 units, peptide 10 ug

Substance	effect of 4 ug/ml HBV on the MIC of the antibiotic ([1]; S. aureus strain 51072)	effect of 4 ug/ml HBV on the MIC of the antibiotic [1, 10]	effect of 4 ug/ml HBV on the MIC of the antibiotic ([2]; S. epidermidis strain 5905)	effect of 4 ug/ml HBV on the MIC of the antibiotic ([2]; S. epidermidis strain 5907)	effect of 4 ug/ml HBV on the MIC of the antibiotic ([2]; S. epidermidis strain 7905)	effect of 4 ug/ml HBV on the MIC of the antibiotic ([2]; S. epidermidis strain 7908)	effect of 4 ug/ml HBV on the MIC of the antibiotic ([2]; S. epidermidis strain 39817)	effect of 4 ug/ml HBV on the MIC of the antibiotic [3]	Average optical densities (OD660) [6, 11]	Average optical densities (OD660) [6, 12]	Average optical densities (OD660) [6, 13]	Average optical densities (OD660) [6, 14]	Average optical densities (OD660) [6, 15]	Average optical densities (OD660) [6, 16]	Average optical densities (OD660) [6, 17]	Average optical densities (OD660) [6, 18]	Average optical densities (OD660) [6, 19]	Average optical densities (OD660) [6, 20]	Average optical densities (OD660) [6, 21]	relative in vitro activity, place in ascending order [8]	also measured
Gentamicin	+^ (A (+) indicates a MIC decrease greater than or equal to two dilution steps.)	+^ (A (+) indicates a MIC decrease greater than or equal to two dilution steps.)	− (A (−) indicates a MIC decrease of less than two dilution steps.)	− (A (−) indicates a MIC decrease of less than two dilution steps.)	− (A (−) indicates a MIC decrease of less than two dilution steps.)	+ (A (+) indicates a MIC decrease greater than or equal to two dilution steps.)	+ (A (+) indicates a MIC decrease greater than or equal to two dilution steps.)	− (A (−) indicates a MIC decrease of less than two dilution steps.)													effect of 4 ug/ml HBV on the MIC of the antibiotic ([4]; E. coli strain 1173): − (A (−) indicates a MIC decrease of less than two dilution steps.); effect of 4 ug/ml HBV on the MIC of the antibiotic ([4]; E. coli strain 4302): + (A (+) indicates a MIC decrease greater than or equal to two dilution steps.); effect of 4 ug/ml HBV on the MIC of the antibiotic ([4]; E. coli strain 19033): + (A (+) indicates a MIC decrease greater than or equal to two dilution steps.); effect of 4 ug/ml HBV on the MIC of the antibiotic ([4]; E. coli strain QC): + (A (+) indicates a MIC decrease greater than or equal to two dilution steps.)
Melittin (1-20)-Lys-Arg-Lys-Arg-Gln-Gln-NH2.									.013	.013	.072	.072	.833	.0827	1.10	1.09	1.11	1.10	1.18	2	antibacterial activity [5]: potent antibacterial activity; Average optical densities (OD660) [6, 22]: 1.19; MEAN A660 ([7]; T0): 0.021; MEAN A660 ([7]; T2): 0.080; MEAN A660 ([7]; T4): 0.374; MEAN A660 ([7]; T6): 1.099; MEAN A660 ([7]; T8): 1.288; MEAN A660 ([7]; T12): 1.339; MEAN A660 ([7]; T24): 1.415; antibacterial activity of the melittin fraction compared with whole HBV, in combination with kanamycin ([7]; equivalent doses with equal doses of kanamycin (FIG. 15)): None of the optical densities at any time point on the two curves are significantly different; antibacterial activity of the melittin fraction compared with whole HBV ([7]; equivalent doses, without antibiotic (FIG. 14)): No significant differences; effect of the peptide alone on the growth of E. coli ([8]; used alone at 10 ug/ml or less): no effect
H-Gly-Ile-Gly-Ala-Val-Leu-Lys-Val-Leu-Thr-Thr-Gly-Leu-Pro-Ala-Leu-Ile-Ser-Trp-Ile-Lys-Lys-Lys-Lys-Gln-Gln-NH2 (H-GIGAVLKVLTTGLPALISWIKKKKQQ-NH2) [Analogue #6]									.013	.013	.072	.072	.831	.824	1.07	1.09	1.09	1.11	1.16	4	Relative Activity [9]: 100%; Average optical densities (OD660) [6, 22]: 1.17; synergistic activity with polymyxin B compared with natural melittin [6]: At no time could a significant difference be detected; synergistic activity with polymyxin B compared with natural melittin ([6]; listed as Analogue No. 6): activity equivalent to natural melittin; difference between the specific activities of melittin versus analogue #6 ([6]; estimated from Table 11): less than 10%
Melittin (1-20) - Gly-Gly-Gly-Gly-Gln-Gln-NH2 [Analogue #7]																				1	Relative Activity [9]: 20%
Venomycin	+^ (A (+) indicates a MIC decrease greater than or equal to two dilution steps.)	+^ (A (+) indicates a MIC decrease greater than or equal to two dilution steps.)	− (A (−) indicates a MIC decrease of less than two dilution steps.)	− (A (−) indicates a MIC decrease of less than two dilution steps.)	− (A (−) indicates a MIC decrease of less than two dilution steps.)	+ (A (+) indicates a MIC decrease greater than or equal to two dilution steps.)	− (A (−) indicates a MIC decrease of less than two dilution steps.)	− (A (−) indicates a MIC decrease of less than two dilution steps.)													
Penicillin	+^6 (A (+) indicates a MIC decrease greater than or equal to two dilution steps.)	−^5 (A (−) indicates a MIC decrease of less than two dilution steps.)	− (A (−) indicates a MIC decrease of less than two dilution steps.)	− (A (−) indicates a MIC decrease of less than two dilution steps.)	+ (A (+) indicates a MIC decrease greater than or equal to two dilution steps.)	+ (A (+) indicates a MIC decrease greater than or equal to two dilution steps.)	+ (A (+) indicates a MIC decrease greater than or equal to two dilution steps.)	− (A (−) indicates a MIC decrease of less than two dilution steps.)													
